The source of these data is PubChem BioAssay (NCI).

Among the test systems are CCRF-CEM leukemia; HCT-15 colon; HL-60(TB) leukemia; MOLT-4 leukemia; NCI-H460 lung; RPMI-8226 leukemia; SF-295 CNS; SF-539 CNS; SK-MEL-28 melanoma; SW-620 colon.
Common to all, as to test: DTP human tumour cell line panel, 48 h

Values joined by “and” are separate entries in the source; they are usually repeats but may differ in a detail not shown here. Identical values can stand only once.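 Growth conditions: 96-well plates. Treatment: test compound, 48 hours, 5 concentrations. Analysis: linear interpolation between bracketing concentrations; unreached endpoints set to highest concentration. The concentration for 50% growth inhibition is given as GI50. TGI marks complete inhibition of growth.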 Bounds are passed on as bounds.

In the case of `O=C1/C(=C/c2ccc(O)cc2)CSc2ccc(Cl)cc21`, the GI50 – broadly, the concentration at which growth is held to half of that of the control – was 0.58 µM in the experiment with CCRF-CEM leukemia; 8.31 µM in the experiment on HCT-15 colon; 2.27 µM with HL-60(TB) leukemia; 4.09 µM in the experiment with MOLT-4 leukemia; 17.7 µM in the experiment with NCI-H460 lung; 3.62 µM in the experiment with RPMI-8226 leukemia. Moreover, the GI50 in the experiment on SF-295 CNS is 18.2 µM; with SF-539 CNS, 16.8 µM; in the experiment with SK-MEL-28 melanoma it was 4.04 µM; in the experiment on SW-620 colon it was 1.99 µM. In addition, the TGI (in general, the concentration at which net growth stops) was above 100 µM with CCRF-CEM leukemia; 21.9 µM in the experiment on HCT-15 colon; above 100 µM in the experiment with HL-60(TB) leukemia; above 100 µM in the experiment with MOLT-4 leukemia; 39.2 µM with NCI-H460 lung; above 100 µM in the experiment on RPMI-8226 leukemia. Also, the TGI with SF-295 CNS turned out to be 40.1 µM; with SF-539 CNS, 31.4 µM; in the experiment with SK-MEL-28 melanoma it was 15.8 µM; in the experiment on SW-620 colon, 4.04 µM.

In the case of `Cc1ccc2c(c1)CN(C(=O)CCC(=O)OCc1ccccc1)c1ccc(C)cc1CN2C(=O)CCC(=O)OCc1ccccc1`, the TGI with CCRF-CEM leukemia, in the experiment with HCT-15 colon, in the experiment on HL-60(TB) leukemia, in the experiment with MOLT-4 leukemia, with NCI-H460 lung and in the experiment on RPMI-8226 leukemia was above 100 µM throughout. Further, the TGI in the experiment on SF-295 CNS, with SF-539 CNS, in the experiment with SK-MEL-28 melanoma and in the experiment with SW-620 colon was above 100 µM each time.

Turning to `CC(=O)O.[Au].c1ccc([PH+](c2ccccc2)c2ccccc2)cc1`, the GI50 was 0.404 µM in the experiment on CCRF-CEM leukemia; 1.56 µM in the experiment on HCT-15 colon; 0.0578 µM in the experiment with HL-60(TB) leukemia; 1.61 µM with MOLT-4 leukemia; 17.2 µM with NCI-H460 lung; 1.32 µM in the experiment with RPMI-8226 leukemia. The GI50 in the experiment with SF-295 CNS is 2.89 µM; in the experiment with SF-539 CNS, 8.6 µM; in the experiment with SK-MEL-28 melanoma, 1.63 µM. Moreover, the TGI in the experiment with CCRF-CEM leukemia worked out at 2.34 µM; in the experiment on HCT-15 colon it was 3.15 µM; in the experiment on HL-60(TB) leukemia, 0.266 µM; with MOLT-4 leukemia, 4.17 µM; with NCI-H460 lung, 74.7 µM; in the experiment on RPMI-8226 leukemia it was 4.46 µM. For the same compound, the figures for the TGI in the experiment on SF-295 CNS, in the experiment on SF-539 CNS and in the experiment with SK-MEL-28 melanoma were above 100 µM, 23.2 µM and 3.66 µM, respectively.

As for `CNc1nc(N)c(N=O)c(Nc2ccc(Br)cc2)n1`, the TGI with CCRF-CEM leukemia, in the experiment with HCT-15 colon, in the experiment on HL-60(TB) leukemia, with MOLT-4 leukemia, in the experiment on NCI-H460 lung and in the experiment with RPMI-8226 leukemia was above 100 µM in each case. Also, the TGI in the experiment on SF-295 CNS, in the experiment with SF-539 CNS, in the experiment with SK-MEL-28 melanoma and in the experiment on SW-620 colon was above 100 µM each time.

Take `COc1ccc(C2SCC(=O)N2NC(=O)Nc2c(C)nc3ccccn23)cc1` (stereo not drawn): the GI50 in the experiment on CCRF-CEM leukemia is above 100 µM; with HCT-15 colon, above 100 µM; with HL-60(TB) leukemia, above 100 µM; with MOLT-4 leukemia, above 100 µM; with NCI-H460 lung it was 90.5 µM; with RPMI-8226 leukemia, above 100 µM. Moreover, the GI50 in the experiment with SF-295 CNS was 24.5 µM; with SF-539 CNS, 34.1 µM; with SK-MEL-28 melanoma, above 100 µM; in the experiment on SW-620 colon it was above 100 µM. Also, the total growth inhibition concentration (TGI) with CCRF-CEM leukemia, with HCT-15 colon, with HL-60(TB) leukemia, with MOLT-4 leukemia, with NCI-H460 lung and with RPMI-8226 leukemia was above 100 µM in each case. Besides, the TGI in the experiment on SF-295 CNS was 57.3 µM; with SF-539 CNS, above 100 µM; in the experiment with SK-MEL-28 melanoma it was above 100 µM; in the experiment with SW-620 colon it was above 100 µM.

For `CON(C)C(=O)N1N=C(c2cc(F)ccc2F)SC1(CCCN)c1ccccc1` (stereo not drawn), the GI50 with CCRF-CEM leukemia was 0.0115 µM and < 0.01 µM; in the experiment on HCT-15 colon, 0.0485 µM and < 0.01 µM; in the experiment on HL-60(TB) leukemia it was 0.0184 µM and < 0.01 µM; in the experiment with MOLT-4 leukemia, 0.0547 µM and < 0.01 µM; in the experiment on NCI-H460 lung it was below 0.01 µM; with RPMI-8226 leukemia, 0.0131 µM and < 0.01 µM. Also, the GI50 in the experiment with SF-295 CNS was 0.0191 µM and < 0.01 µM; in the experiment with SF-539 CNS it was 0.027 µM; in the experiment with SK-MEL-28 melanoma, 10.6 µM and 2.97 µM; with SW-620 colon it was below 0.01 µM. The TGI is 22.4 µM and 21.6 µM in the experiment on CCRF-CEM leukemia; 15.9 µM and 17.6 µM in the experiment with HCT-15 colon; 5.38 µM and 2.03 µM with HL-60(TB) leukemia; 20 µM and 18.2 µM in the experiment on MOLT-4 leukemia; 12 µM and 11.8 µM in the experiment with NCI-H460 lung; 11 µM and 9.04 µM in the experiment on RPMI-8226 leukemia. In addition, the TGI in the experiment on SF-295 CNS is 1.1 µM; in the experiment with SF-539 CNS, 0.351 µM; in the experiment on SK-MEL-28 melanoma it was 23.8 µM and 23.1 µM; in the experiment on SW-620 colon it was 15.6 µM and 16 µM.

Regarding `CCCS(=O)(=O)/C(=C(\c1ccc(Br)cc1)S(=O)(=O)CCC)c1ccc(Br)cc1`, the TGI in the experiment with CCRF-CEM leukemia, in the experiment on HCT-15 colon, with HL-60(TB) leukemia, with MOLT-4 leukemia, with NCI-H460 lung and in the experiment with RPMI-8226 leukemia was above 10 µM throughout. The TGI in the experiment on SF-295 CNS, in the experiment on SF-539 CNS, in the experiment on SK-MEL-28 melanoma and with SW-620 colon was above 10 µM each time.

As for `CO[C@H]1C=C[C@@]23c4cc5c(cc4CO[C@]2(O)CN(C)[C@H]3C1)OCO5`, the TGI in the experiment with CCRF-CEM leukemia, in the experiment with HCT-15 colon, in the experiment with HL-60(TB) leukemia, with MOLT-4 leukemia, in the experiment with NCI-H460 lung and in the experiment on RPMI-8226 leukemia was above 100 µM in each case. Also, the TGI with SF-295 CNS, with SF-539 CNS, in the experiment with SK-MEL-28 melanoma and in the experiment on SW-620 colon was above 100 µM throughout.

In the case of `CC1(C)N=C(N)N=C(N)N1c1ccc(OCc2ccc(S(=O)(=O)F)c(Cl)c2)c(Cl)c1`, the GI50 with CCRF-CEM leukemia is 1.06 µM; with HCT-15 colon, 0.586 µM; with HL-60(TB) leukemia, 1.35 µM; in the experiment with MOLT-4 leukemia it was 3.59 µM; with NCI-H460 lung it was 0.426 µM; in the experiment on RPMI-8226 leukemia, above 100 µM. For the same compound, the GI50 with SF-295 CNS is 3.88 µM; in the experiment on SF-539 CNS, 4.57 µM; in the experiment on SK-MEL-28 melanoma it was 8.61 µM; in the experiment with SW-620 colon, 0.424 µM. The TGI in the experiment with CCRF-CEM leukemia, in the experiment with HCT-15 colon, with HL-60(TB) leukemia, with MOLT-4 leukemia, with NCI-H460 lung and in the experiment with RPMI-8226 leukemia was above 100 µM throughout. Also, the TGI in the experiment with SF-295 CNS, in the experiment on SF-539 CNS, in the experiment on SK-MEL-28 melanoma and in the experiment on SW-620 colon was above 100 µM in each case.

For `COc1cc2c(c(OC)c1OC)-c1c(cc3c(c1OC)OCO3)C1OC2C(C)C1C` (stereo not drawn) (tested in a mixture with another compound), the TGI with CCRF-CEM leukemia is above 100 µM; with HCT-15 colon it was above 100 µM; in the experiment on HL-60(TB) leukemia, above 100 µM; in the experiment with MOLT-4 leukemia it was 70.4 µM; in the experiment with NCI-H460 lung it was above 100 µM; in the experiment on RPMI-8226 leukemia, above 100 µM. Besides, the TGI in the experiment with SF-295 CNS, in the experiment with SF-539 CNS, in the experiment on SK-MEL-28 melanoma and with SW-620 colon was above 100 µM throughout.
